Where two headings read alike, the source gives them in different places.
How the values were obtained:
[1] = test system: GMC101 strain of C. elegans; experiment: Temperature-dependent paralysis assay in C. elegans Alzheimer's disease model; assay type: in vivo; conditions: for number of paralyzed worms: 1 μg/ml, counted after 18-hour incubation at 25° C.
Procedure: Paralysis assay: Worms were grown at a non-restrictive temperature of 16° C. until they reached the L4-young adult stage. The temperature was then shifted to 25° C. The number of paralyzed and non-paralyzed animals were counted after an 18-hour incubation at the restrictive temperature of 25° C.
Statistical analysis: The data were analyzed using a 2-tailed chi-square test in contingency table. Statistical analysis was performed using the GraphPad Prism software (version 7.00).

[2] = test system: C. elegans Parkinson's disease model strain NL5901; experiment: Mobility (pitches per minute) in C. elegans Parkinson's disease model; assay type: in vivo; conditions: STX64 1 μg/ml in DMSO; nematodes overexpressing human α-synuclein in muscle cells, monitored every two days; vs DMSO
Procedure: C. elegans models of Parkinson's disease: We tested if sul-2 mutations or STX64 (Sigma cat. No. 51950) treatment at 1 μg/ml concentration dissolved in DMSO improved the symptoms caused by the overexpression of human α-synuclein in muscle cells (see the following references for information on the model used: van Ham et al., 2008. PLoS Genet. 4(3):e1000027; Gidalevitz et al., 2009. PLoS Genet. 5(3):e1000399; van Ham et al., 2010. Cell. 142(4):601-12). In particular, nematodes were synchronized at 20° C. and monitored every two days. On each day of monitoring, a nematode was placed in a drop of M9 buffer, allowing 30 seconds accommodation and later counting number of pitches in one minute, assuming that a pitch occurs when the head of the nematode crosses the axial axis. N=20 for each day assayed and condition (this protocol was adapted from Van Ham et al., 2010. Cell. 142: 601-612).

α-synuclein aggregates = experiment: Counting of fluorescent α-synuclein aggregates in C. elegans Parkinson's disease model; assay type: in vivo; conditions: NL5901 nematodes expressing α-synuclein fused to YFP; STX64 vs DMSO
Procedure: Further, we tested the effect of the sul-2 deletion and the administration of STX64 on the aggregation of α-synuclein. To quantify the aggregates, animals were transferred to pads comprising 2% agarose and immobilized using 25 mM levamisole. The number of α-synuclein aggregates was determined by counting fluorescent aggregates at 40× magnification, from first bulb pharyngeal to second bulb.

[3] = test system: 35 polyglutamine (polyQ) repeats fused to YFP, strain AM140; experiment: Counting of polyQ aggregates in C. elegans Huntington's disease model; assay type: in vivo; conditions: STX64 1 μg/ml in DMSO; counted at day 5 of adulthood
Procedure: To quantify the aggregates, animals were transferred to pads comprising 2% agarose and immobilized using 25 mM levamisole. The number of polyQ aggregates was determined by counting fluorescent aggregates at 10× magnification, from first bulb pharyngeal to second bulb.

[4] = test system: C. elegans Alzheimer's disease model strain CL2006; experiment: Paralysis in C. elegans Alzheimer's disease model expressing β-amyloid in muscle cells; assay type: in vivo; conditions: nematodes expressing β-amyloid in muscle cells, monitored from 1st day of adulthood
Procedure: C. elegans model of Alzheimer's disease: We also tested an Alzheimer's disease model expressing β-amyloid protein in muscle cells which causes paralysis in the nematode as it ages. Nematodes were synchronized at 20° C. Paralysis was monitored from 1st day of adulthood, by observing whether there is a lack of movement after the nematode was stimulated with a platinum pick.

[5] = test system: wild type mice injected with β-amyloid oligomers in the hippocampus; experiment: Step-through passive avoidance test after intrahippocampal β-amyloid oligomers (acute AD mouse model); assay type: in vivo
Procedure: (§1) Mice strains and conditions: The male Swiss (CD1) and APP-PS1 (Blanchard et al., 2003. Exp Neural. 184(1):247-63) mice used in this study were purchased from an authorized provider (University of Seville, Spain) and they were habituated to standard animals housing conditions for 2-3 weeks (a 12 h light/dark cycle, temperature and humidity). Behavioral studies were performed with 8 week-old Swiss mice, and >15 month-old APP-PS1 mice in C57Black background. For histological studies, male APP-PS1 mice from 2 to >15 months of age were used. All experiments were performed in accordance with European Union guidelines (2010/63/EU) and with Spanish regulations for the use of laboratory animals in chronic experiments (RD 53/2013 on the care of experimental animals: BOE Aug. 2, 2013), and the approval of the University Pablo de Olavide animal care committees was obtained prior to performing this study.
Mice local drug infusion: Mice were anesthetized with 4% chloral hydrate ([…] of body weight, i.p.) and when fully anesthetized, they were situated in a stereotactic frame. In order to injure the hippocampus, 0.5 μl of 5 μM solution of β-amyloid oligomers were injected bilaterally into the dorsal hippocampus of the mice at the following stereotactic coordinates: AP=−2.2 mm, ML=±1.5 mm, V=−1.5 mm from the Bregma. The mice were then allowed to recover for at least 15 days. […]

β-amyloid = β-amyloid immunohistochemistry and histological analysis in APP-PS1 mice; assay type: in vivo
Procedure: as §1
(§2) Mice Oral STX administration: STX64 was dissolved in drinking water at 0.005 mg/ml. Mice were exposed to STX solution during 3-4 weeks and the water intake was registered every day during the treatment. The estimated daily dose of STX64 was between 1-2 mg/Kg of body weight.
Immunohistochemistry and histological analysis: For immunohistochemistry, an antibody against β-amyloid (1:3000, Sigma-Aldrich) was used. Antibody staining was visualized with H2O2 and diaminobenzidine, and enhanced with nickel. To minimize variability, at least 5 sections per mice were analyzed under a bright-field DMRB RFY HC microscope (Leica). In each section, the percentage area occupied by β-amyloid, the density and the average size of β-amyloid accumulations were quantified using Image-J software (downloaded as a free software package from the public domain: http://rsb.info.nih.gov/ij/download.html).

APP-PS1 mice = experiment: Step-through passive avoidance test in APP-PS1 mice (chronic AD mouse model); assay type: in vivo; conditions: APP-PS1 mice older than 15 months, oral STX64 during 3-4 weeks; vs vehicle and wild type mice
Procedure: as §1, §2
Step-through passive avoidance (PA) test: Mice have an innate preference for dark and enclosed environments. […]

R6/1 mice = experiment: Open-field motor activity test in mouse model of Huntington's disease; assay type: in vivo; conditions: oral STX64 0.005 mg/ml in drinking water from 1 month of age for 1 month, tested at 2 months
Procedure: Mice strains and conditions: The R6/1 mice (Yi Li et al., 2005. NeuroRX. 2(3): 447-464; Mangiarini et al., 1996. Cell. 87(3):493-506) used in this study were purchased from an authorized provider and they were habituated to standard animals housing conditions for 2-3 weeks (a 12 h light/dark cycle, temperature and humidity). Motor activity studies were performed with 2-month-old R6/1 mice. All experiments were performed in accordance with European Union guidelines (2010/63/EU) and with Spanish regulations for the use of laboratory animals in chronic experiments (RD 53/2013 on the care of experimental animals: BOE Aug. 2, 2013), and the approval of the University Pablo de Olavide animal care committees was obtained prior to performing this study.
Mice Oral STX administration: STX64 was dissolved in drinking water at 0.005 mg/ml. 1-month-old mice were exposed to STX solution for 1 month and the water intake was registered every day during the treatment. The estimated daily dose of STX64 was between 1-2 mg/Kg of body weight.
Motor activity test: Locomotor activity was tested in a non-stressful open-field (56×40×40 cm) for 15 minutes. The distance traveled by the mice was estimated with Smart video-tracking software (Panlab).

[6] = test system: wild type worms and sul-2 deletion mutants; conditions: cited from earlier work

| SMILES | number of paralyzed worms [1] | mobility (number of pitches in one minute) [2] | number of bigger α-synuclein aggregates (≥3 μm) (α-synuclein aggregates) | number of smaller α-synuclein aggregates (<1 μm) (α-synuclein aggregates) | total number of polyQ aggregates [3] | paralysis with age [4] | cognitive deficiencies (escape latency, passive avoidance test) ([5]; local (intrahippocampal) STX64, 0.5 μl of 1 mg/ml, 20 minutes before β-amyloid oligomers) | cognitive deficiencies (escape latency, passive avoidance test) ([5]; systemic (oral) STX64, 0.005 mg/ml in drinking water) | β-amyloid immunoreactive area (β-amyloid; >15-month-old APP-PS1 mice, 3-4 weeks oral STX64 (0.005 mg/ml in drink water), frontal cortex and hippocampus, vs vehicle) | β-amyloid plaque density (β-amyloid; >15-month-old APP-PS1 mice, 3-4 weeks oral STX64, frontal cortex and hippocampus, vs vehicle) | average β-amyloid plaque size (β-amyloid; >15-month-old APP-PS1 mice, 3-4 weeks oral STX64, frontal cortex, vs vehicle) | average β-amyloid plaque size (β-amyloid; >15-month-old APP-PS1 mice, 3-4 weeks oral STX64, hippocampus, vs vehicle) | β-amyloid deposition compared with the time-course in untreated APP-PS1 mice (β-amyloid; >15 month-old APP-PS1 mice, 3-4 weeks oral STX64, frontal cortex and hippocampus) | cognitive deficiencies (passive avoidance test) (APP-PS1 mice) | motor activity (distance traveled in open-field, 15 minutes) (R6/1 mice) | effect on paralysis, comparison of sul-2 absence, STX64 and EMATE ([1]; GMC101 strain) | longevity ([6]; sul-2 deletion mutants) | longevity ([6]; wild type worms) |
| --- | --- | --- | --- | --- | --- | --- | --- | --- | --- | --- | --- | --- | --- | --- | --- | --- | --- | --- |
| C[C@]12CC[C@@H]3c4ccc(OS(N)(=O)=O)cc4CC[C@H]3[C@@H]1CCC2=O [EMATE, estrone sulfamate] | reduced the number of paralyzed worms |  |  |  |  |  |  |  |  |  |  |  |  |  |  |  |  |  |
| NS(=O)(=O)Oc1ccc2c3c(c(=O)oc2c1)CCCCC3 [STX64] | reduced the number of paralyzed worms | significantly improved mobility | increasing the number of bigger aggregates | decreased the number of smaller aggregates | reduced the total number of aggregates | delayed paralysis | reverted cognitive deficiencies | reverted cognitive deficiencies | significant reduction | significant reduction | significant reduction | a significant reduction, except for plaque size in hippocampus | reduced β-amyloid deposition in APP-PS1 mice older than 15 months to that observed in APP-PS1 mice of 10-12 months of age | completely reverted cognitive deficiencies | decrease in motor activity can be avoided | appeared to have the greatest effect | did not further increase the longevity | the same longevity effects as in the sul-2 mutants |
